Data reported in paper PMC9011347, “Small-Molecule Inhibitors Targeting Lipolysis in Human Adipocytes” (Journal of the American Chemical Society, 2022).

How the values were obtained:
Assay in all cases: Off-target lipid hydrolase assay, Expi293 lysates
Type in all cases: biochemical
PNPLA6 = biological target: T1, PNPLA6 (Homo sapiens, UniProt Q8IY17); conditions: NG-497 100 µM, substrate LPC
T1 construct: made in house; host or cells: Expi293 cells, lysate
Protocol: (§1) Fig. S3: Investigation of off-target effects of NG-497 on structurally and functionally related lipid hydrolases. (a) […]
(§2) NG-497, inhibited PNPLA1/CGI-58-dependent ω-O-acylceramide formation. (b-h) Enzymes were overexpressed in Expi293 cells and cell lysates were used as source of enzymatic activity. Cell lysates were incubated with the indicated substrates 1-oleoyl phosphatidylcholine (LPC), di-oleoyl phosphatidic acid (PA), di-octanoyl phosphatidylglycerol (PG), or para-nitrophenylvalerate (pNPV). Experiments were performed in the presence or absence of NG-497 (100 µM) and the formation of reaction products was monitored. Cell lysates of LacZ-transfected cells were used to detect basal cellular activity. As positive controls, enzymes were inactivated with lipase inhibitors Orlistat (40 µM), R-BEL (10 µM), KLH-45 (20 nM), HSLi (10 µM), or PMSF (10µM).
(§3) Data were calculated relative to the basal activity detected in LacZ-transfected controls. […]
(§4) LPL activity was inhibited using an anti-LPL antibody. All data are presented as mean ± S.D. Statistical significance was determined via ANOVA followed by Bonferroni post hoc test ( ***, p < 0.001).
(§5) (1 picture or pasted object on this page, not shown here) […]
(§6) 2-mercaptoethanol, 4% sodium dodecyl sulfate, 20% glycerin, bromophenol blue) at 98°C for 10 min. For detection of protein expression, anti-Xpress (Thermo Fisher Scientific #R910-25), anti-mouse-HRP Trueblot (Rockland #18-8817-33), and anti-FLAG HRP (MiliporeSigma #A8592) antibodies were used.
(§7) Analysis of toxicity in HepG2 hepatocytes. For LDH-based viability assays, HepG2 cells were seeded in 96-well plates in DMEM (Gibco) containing 100 IU/ml penicillin, 100 IU/ml streptomycin (MilliporeSigma), and 3% heat-inactivated FCS. […]
(§8) Serum stability of ATGL inhibitors. Inhibitors were incubated in 200 µl human serum for 0 and 3 h at 37°C and extracted in 1 ml MTBE/methanol (3/1, v/v) containing acetic acid/butylated hydroxytoluene (500nM). The extraction mixture was shaken at 1,400 x rpm for 1 h at RT and centrifuged for 10 min at 13,000 x rpm for phase separation. 700 µl of the upper, organic phase were collected, dried under a stream of nitrogen, and lipids resolved in 200 µl methanol/isopropanol/H2O (6/3/1), for UPLC- […]
(§9) Chromatographic separation was modified after Knittelfelder et al.2 using an AQUITY UPLC system (Waters Corporation, Milford, USA) equipped with a ZORBAX Eclipse XDB-C18- column (3 × 30 mm, 1.8 µm; Agilent Technologies, Santa Clara, USA) starting a 15 min gradient with 80% solvent A (water/methanol, 1/1, v/v) and 20% solvent B (2-propanol). Both solvents contained ammonium acetate (10 mM), formic acid (0.1 vol%) and phosphoric acid (8 µM) and the column was kept at 50°C. […]

PNPLA7 = biological target: T2, PNPLA7 (Homo sapiens, UniProt Q6ZV29); conditions: NG-497 100 µM, substrate LPC
T2 construct: made in house; host or cells: Expi293 cells, lysate
Protocol: as §1, §2, §3, §4, §5, §6, §7, §8, §9

PNPLA8 = biological target: T3, PNPLA8 (Homo sapiens, UniProt Q9NP80); conditions: NG-497 100 µM, substrate PA
T3 construct: made in house; host or cells: Expi293 cells, lysate
Protocol: as §1, §2, §3, §4, §5, §6, §7, §8, §9

PNPLA9 = biological target: T4, PNPLA9 (Homo sapiens, UniProt O60733); conditions: NG-497 100 µM, substrate PG
T4 construct: made in house; host or cells: Expi293 cells, lysate
Protocol: as §1, §2, §3, §4, §5, §6, §7, §8, §9

T2 sequence (Q6ZV29 whole entry): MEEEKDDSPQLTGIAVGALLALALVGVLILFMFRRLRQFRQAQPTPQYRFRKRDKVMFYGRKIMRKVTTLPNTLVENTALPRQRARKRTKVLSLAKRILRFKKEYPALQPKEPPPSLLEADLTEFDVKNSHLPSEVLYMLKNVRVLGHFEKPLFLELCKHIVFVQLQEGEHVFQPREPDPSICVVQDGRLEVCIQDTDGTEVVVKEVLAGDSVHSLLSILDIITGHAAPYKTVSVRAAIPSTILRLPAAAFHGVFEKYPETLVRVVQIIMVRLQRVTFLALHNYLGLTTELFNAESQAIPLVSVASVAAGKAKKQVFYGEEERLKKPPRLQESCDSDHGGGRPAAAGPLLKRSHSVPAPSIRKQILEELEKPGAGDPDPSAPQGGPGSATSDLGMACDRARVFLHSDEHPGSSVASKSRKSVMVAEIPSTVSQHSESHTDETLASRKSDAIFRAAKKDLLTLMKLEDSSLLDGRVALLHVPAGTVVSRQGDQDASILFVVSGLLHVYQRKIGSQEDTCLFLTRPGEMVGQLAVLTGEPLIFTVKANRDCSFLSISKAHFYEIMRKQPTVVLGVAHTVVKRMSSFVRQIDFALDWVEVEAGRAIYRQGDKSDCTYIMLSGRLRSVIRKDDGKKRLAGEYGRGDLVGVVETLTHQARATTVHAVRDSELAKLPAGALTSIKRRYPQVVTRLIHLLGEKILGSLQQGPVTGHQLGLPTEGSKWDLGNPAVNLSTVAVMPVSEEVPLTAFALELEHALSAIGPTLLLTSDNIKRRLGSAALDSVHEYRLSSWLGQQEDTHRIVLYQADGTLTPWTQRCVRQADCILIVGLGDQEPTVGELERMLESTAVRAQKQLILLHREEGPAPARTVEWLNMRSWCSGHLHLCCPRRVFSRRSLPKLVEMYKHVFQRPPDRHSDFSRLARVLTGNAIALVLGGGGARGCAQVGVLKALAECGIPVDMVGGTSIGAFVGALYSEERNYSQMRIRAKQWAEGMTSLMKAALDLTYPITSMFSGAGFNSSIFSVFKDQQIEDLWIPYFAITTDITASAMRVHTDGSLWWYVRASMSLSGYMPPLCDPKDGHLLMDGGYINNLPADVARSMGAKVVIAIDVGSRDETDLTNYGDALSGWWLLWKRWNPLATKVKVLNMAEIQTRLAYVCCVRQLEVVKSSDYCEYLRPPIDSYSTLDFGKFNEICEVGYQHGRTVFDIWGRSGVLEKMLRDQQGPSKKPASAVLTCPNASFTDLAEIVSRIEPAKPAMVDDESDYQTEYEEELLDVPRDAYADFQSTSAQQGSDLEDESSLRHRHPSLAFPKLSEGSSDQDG
T1 sequence (Q8IY17 whole entry): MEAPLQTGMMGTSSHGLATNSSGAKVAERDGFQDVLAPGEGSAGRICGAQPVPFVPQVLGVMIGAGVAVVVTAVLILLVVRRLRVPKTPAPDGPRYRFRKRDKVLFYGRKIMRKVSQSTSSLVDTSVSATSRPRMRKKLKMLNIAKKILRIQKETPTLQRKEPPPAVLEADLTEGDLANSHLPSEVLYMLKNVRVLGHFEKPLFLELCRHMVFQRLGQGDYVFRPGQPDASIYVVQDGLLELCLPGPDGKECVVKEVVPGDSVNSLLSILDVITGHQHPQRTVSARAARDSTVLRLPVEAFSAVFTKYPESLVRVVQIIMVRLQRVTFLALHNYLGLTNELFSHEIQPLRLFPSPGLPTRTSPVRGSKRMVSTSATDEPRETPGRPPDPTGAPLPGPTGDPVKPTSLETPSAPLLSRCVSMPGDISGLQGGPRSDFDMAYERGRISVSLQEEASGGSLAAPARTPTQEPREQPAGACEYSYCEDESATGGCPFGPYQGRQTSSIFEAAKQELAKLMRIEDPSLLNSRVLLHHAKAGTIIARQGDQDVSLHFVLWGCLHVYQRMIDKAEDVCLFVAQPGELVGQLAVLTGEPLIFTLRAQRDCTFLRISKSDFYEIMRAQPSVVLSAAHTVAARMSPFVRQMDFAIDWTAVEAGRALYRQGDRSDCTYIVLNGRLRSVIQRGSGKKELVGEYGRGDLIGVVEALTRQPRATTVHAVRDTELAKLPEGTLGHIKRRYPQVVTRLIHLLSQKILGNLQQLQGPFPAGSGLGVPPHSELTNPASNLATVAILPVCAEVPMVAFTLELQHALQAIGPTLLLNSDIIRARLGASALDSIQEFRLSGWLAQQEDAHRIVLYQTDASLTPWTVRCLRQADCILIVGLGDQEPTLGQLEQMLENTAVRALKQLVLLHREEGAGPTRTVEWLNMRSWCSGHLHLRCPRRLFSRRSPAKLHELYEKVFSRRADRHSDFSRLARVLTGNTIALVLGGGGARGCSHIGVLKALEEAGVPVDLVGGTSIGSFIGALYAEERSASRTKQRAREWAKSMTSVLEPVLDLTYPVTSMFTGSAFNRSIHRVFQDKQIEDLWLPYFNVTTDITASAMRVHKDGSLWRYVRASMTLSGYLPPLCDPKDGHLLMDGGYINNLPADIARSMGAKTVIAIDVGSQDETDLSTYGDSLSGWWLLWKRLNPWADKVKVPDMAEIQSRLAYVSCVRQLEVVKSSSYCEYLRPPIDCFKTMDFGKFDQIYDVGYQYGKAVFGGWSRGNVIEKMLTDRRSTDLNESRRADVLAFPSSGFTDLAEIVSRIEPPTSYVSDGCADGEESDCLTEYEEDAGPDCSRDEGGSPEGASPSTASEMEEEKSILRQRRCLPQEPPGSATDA
T4 sequence (O60733 whole entry): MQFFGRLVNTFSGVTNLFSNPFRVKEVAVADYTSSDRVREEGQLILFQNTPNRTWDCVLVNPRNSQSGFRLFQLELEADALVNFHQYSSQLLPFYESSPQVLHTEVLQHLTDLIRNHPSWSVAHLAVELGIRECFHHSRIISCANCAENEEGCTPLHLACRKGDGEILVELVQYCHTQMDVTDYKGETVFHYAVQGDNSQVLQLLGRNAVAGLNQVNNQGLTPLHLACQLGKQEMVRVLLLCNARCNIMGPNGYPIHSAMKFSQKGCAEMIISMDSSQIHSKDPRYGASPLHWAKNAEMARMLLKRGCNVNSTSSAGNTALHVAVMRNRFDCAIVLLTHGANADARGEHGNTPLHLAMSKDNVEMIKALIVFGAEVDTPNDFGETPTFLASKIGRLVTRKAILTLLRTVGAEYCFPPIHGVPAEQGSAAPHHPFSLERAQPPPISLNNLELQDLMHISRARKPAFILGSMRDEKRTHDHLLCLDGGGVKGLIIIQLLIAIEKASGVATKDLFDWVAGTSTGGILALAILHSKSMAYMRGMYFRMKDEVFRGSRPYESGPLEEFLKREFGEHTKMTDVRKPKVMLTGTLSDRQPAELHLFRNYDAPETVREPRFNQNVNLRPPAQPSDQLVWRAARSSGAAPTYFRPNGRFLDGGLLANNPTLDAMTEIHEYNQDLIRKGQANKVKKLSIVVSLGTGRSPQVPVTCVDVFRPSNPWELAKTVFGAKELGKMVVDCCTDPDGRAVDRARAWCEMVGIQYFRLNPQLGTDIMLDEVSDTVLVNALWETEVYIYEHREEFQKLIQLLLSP
T3 sequence (Q9NP80 whole entry): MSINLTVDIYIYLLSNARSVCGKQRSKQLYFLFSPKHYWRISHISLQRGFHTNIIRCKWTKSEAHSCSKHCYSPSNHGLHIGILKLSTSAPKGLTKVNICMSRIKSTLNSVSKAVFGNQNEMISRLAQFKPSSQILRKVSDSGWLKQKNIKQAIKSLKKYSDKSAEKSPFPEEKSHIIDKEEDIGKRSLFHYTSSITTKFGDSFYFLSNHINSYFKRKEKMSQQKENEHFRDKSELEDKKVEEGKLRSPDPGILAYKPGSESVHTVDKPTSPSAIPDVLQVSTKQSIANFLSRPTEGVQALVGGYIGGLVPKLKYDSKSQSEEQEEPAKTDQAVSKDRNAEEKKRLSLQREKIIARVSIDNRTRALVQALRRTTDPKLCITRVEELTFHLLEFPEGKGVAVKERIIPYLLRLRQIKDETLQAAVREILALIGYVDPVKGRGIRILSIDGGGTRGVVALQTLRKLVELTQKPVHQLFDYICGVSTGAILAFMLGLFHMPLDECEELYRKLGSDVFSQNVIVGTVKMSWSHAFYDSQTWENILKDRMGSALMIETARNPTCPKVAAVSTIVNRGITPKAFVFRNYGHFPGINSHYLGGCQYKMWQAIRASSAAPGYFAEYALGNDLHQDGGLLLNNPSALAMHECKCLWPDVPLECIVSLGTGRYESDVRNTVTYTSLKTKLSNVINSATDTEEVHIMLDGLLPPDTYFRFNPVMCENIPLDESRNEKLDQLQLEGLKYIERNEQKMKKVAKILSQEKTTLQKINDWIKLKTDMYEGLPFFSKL

CCOc1ccc(-c2cc(OC)cc(C(=O)OC(C)C)n2)cc1 [NG-497]
did not observe inhibition: inhibition of PNPLA6 (PNPLA6) | inhibition of PNPLA7 (PNPLA7) | inhibition of PNPLA8 (PNPLA8) | inhibition of PNPLA9 (PNPLA9)
